From ChEMBL document CHEMBL4665892, “Structural Basis for the Binding Mechanism of Human Serum Albumin Complexed with Cyclic Peptide Dalbavancin” (J Med Chem, 2020)

Assay: Protein binding in human plasma
Type: ADME, cell-free
Settings: read-out: PPB (converted)

CCCCCCCCCC(=O)N[C@@H](Cc1c[nH]c2ccccc12)C(=O)N[C@H](CC(N)=O)C(=O)N[C@@H](CC(=O)O)C(=O)N[C@@H]1C(=O)NCC(=O)N[C@@H](CCCN)C(=O)N[C@@H](CC(=O)O)C(=O)N[C@H](C)C(=O)N[C@@H](CC(=O)O)C(=O)NCC(=O)N[C@H](CO)C(=O)N[C@@H]([C@H](C)CC(=O)O)C(=O)N[C@@H](CC(=O)c2ccccc2N)C(=O)O[C@@H]1C
fraction unbound: 0.15
